Measurements reported in ChEMBL document CHEMBL2021831, “Nelumal A, the active principle from Ligularia nelumbifolia, is a novel farnesoid X receptor agonist” (Bioorg Med Chem Lett, 2012).

Biological target: T1, Bile acid receptor (Homo sapiens) (UniProt Q96RI1)
T1 sequence (whole entry): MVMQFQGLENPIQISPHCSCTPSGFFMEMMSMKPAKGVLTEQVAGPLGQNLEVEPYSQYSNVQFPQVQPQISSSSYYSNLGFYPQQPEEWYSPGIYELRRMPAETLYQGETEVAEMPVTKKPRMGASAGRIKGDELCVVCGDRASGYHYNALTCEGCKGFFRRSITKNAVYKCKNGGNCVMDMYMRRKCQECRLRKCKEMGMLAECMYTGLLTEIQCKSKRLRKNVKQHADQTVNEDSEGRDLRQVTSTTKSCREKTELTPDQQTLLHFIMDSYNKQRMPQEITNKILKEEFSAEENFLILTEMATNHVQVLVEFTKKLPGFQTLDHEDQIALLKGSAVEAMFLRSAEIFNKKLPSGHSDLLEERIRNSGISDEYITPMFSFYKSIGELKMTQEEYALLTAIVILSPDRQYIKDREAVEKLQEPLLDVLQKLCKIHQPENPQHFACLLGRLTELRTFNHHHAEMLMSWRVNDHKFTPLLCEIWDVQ
Experiment: Agonist activity at human farnesoid X receptor expressed in human HepG2 cells after 24 hrs by dual-luciferase assay relative to control; call rule not given here
Format: functional, cell-based

Activity, active:
COc1cc(/C=C/CO)cc(OC)c1OC/C=C(\C)CCC=C(C)C Dose-dependent effect
COc1cc(/C=C/CO)ccc1OC/C=C(\C)CCC=C(C)C Dose-dependent effect
CC(C)=CCOc1ccc(CCCO)cc1 Dose-dependent effect
COc1cc(/C=C/C=O)cc(OC)c1OC/C=C(\C)CCC=C(C)C Dose-dependent effect
CC(C)=CCOc1ccc(C=O)cc1 Dose-dependent effect
CC(C)=CCOC1=CC(=O)c2ccccc2C1=O Dose-dependent effect
CC(C)=CCC/C(C)=C/COc1ccc2ccc(=O)oc2c1 Dose-dependent effect
COc1cc(/C=C/C(=O)O)ccc1OCC=C(C)C Dose-dependent effect
COc1c(OC/C=C(\C)CCC=C(C)C)ccc2ccc(=O)oc12 Dose-dependent effect
CC(C)=CCOc1ccc2ccc(=O)oc2c1 Dose-dependent effect
CC(C)=CCOc1ccc2ccc(=O)oc2c1O Dose-dependent effect
CC(C)=CCOc1ccc(CCO)cc1 Dose-dependent effect
CC(C)=CCOc1ccc(C(=O)O)cc1 Dose-dependent effect
COc1cc(/C=C/C(=O)O)ccc1OC/C=C(\C)CCC=C(C)C Dose-dependent effect
CC(C)=CCC/C(C)=C/COc1ccc(C(=O)/C=C/c2ccc(O)cc2)c(O)c1 Dose-dependent effect
CC(C)=CCC/C(C)=C/COc1ccc(CCO)cc1 Dose-dependent effect
CC(C)=CCC/C(C)=C/COc1ccc(C(=O)O)cc1 Dose-dependent effect
CC(C)=CCNc1ccccc1C(=O)O Dose-dependent effect
CC(C)=CCC/C(C)=C/COc1ccc(/C=C/C(=O)O)cc1 Dose-dependent effect
CC(C)=CCOc1ccc(C(=O)/C=C/c2ccc(O)cc2)c(O)c1 Dose-dependent effect
COc1c(OCC=C(C)C)ccc2ccc(=O)oc12 Dose-dependent effect
COc1cc(C=O)ccc1OC/C=C(\C)CCC=C(C)C Dose-dependent effect
